Assay results: patent publication US10233182B2, “Substituted spirocyclic inhibitors of autotaxin” (X-Rx, Inc., priority 2014, dated 2019)
pIC50: −log10 of the molar value. Counter-ions that a name gives are not always drawn.

Target: Autotaxin (Homo sapiens (Human), UniProt Q13822)
Test: Autotaxin LPC Cascade Assay
Format: biochemical
Conditions: Autotaxin 5 nM, LPC 100 μM, choline oxidase/HRP/Ampliflu Red fluorescence read-out, 2% DMSO, RT; read-out: IC50 ATX Activity
How it was run: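 Choline liberated from LPC by autotaxin during 1 h, after a 10-min RT compound preincubation, was converted through choline oxidase/HRP to a fluorescent Ampliflu Red product.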

| SMILES | pIC50 |
| --- | --- |
| CC(C)[C@@H](NC(=O)c1cc(C(F)(F)F)ccc1F)C(=O)N1CCC2(CC1)C(=O)N(C)C(=O)N2c1cccc(Cl)c1 [Example 187, (R)—N-(1-(1-(3-Chlorophenyl)-3-methyl-2,4-dioxo-1,3,8-triazaspiro[4.5]decan-8-yl)-3-methyl-1-oxobutan-2-yl)-2-fluoro-5-(trifluoromethyl)benzamide] | > 6.30 |
| CCc1cc(F)cc(C(=O)N[C@@H](C(=O)N2CCC3(CC2)C(=O)N(C)C(=O)N3c2ccccc2)[C@H](C)OC)c1 [Example 38, 3-Ethyl-5-fluoro-N-((2R,3S)-3-methoxy-1-(3-methyl-2,4-dioxo-1-phenyl-1,3,8-triazaspiro[4.5]decan-8-yl)-1-oxobutan-2-yl)benzamide] | ≤ 6.00 |
| COc1ccc(N2C(=O)N(C)C(=O)C23CCN(C(=O)[C@H](NC(=O)c2cc(C4CC4)ccc2F)[C@@H](C)OC)CC3)cc1 [Example 49, 5-Cyclopropyl-2-fluoro-N-((2R,3R)-3-methoxy-1-(1-(4-methoxyphenyl)-3-methyl-2,4-dioxo-1,3,8-triazaspiro[4.5]decan-8-yl)-1-oxobutan-2-yl)benzamide] | > 6.30 |
| CC(C)[C@@H](NC(=O)c1cc(OC(F)F)ccc1F)C(=O)N1CCC2(CC1)C(=O)N(C)CN2c1ccc(C(=O)O)cc1 [Example 165, (R)-4-(8-(2-(5-(Difluoromethoxy)-2-fluorobenzamido)-3-methylbutanoyl)-3-methyl-4-oxo-1,3,8-triazaspiro[4.5]decan-1-yl)benzoic Acid] | > 6.30 |
| CCc1cccc(C(=O)N[C@@H](C(=O)N2CCC3(CC2)C(=O)N(C)CN3c2ccccc2)C(C)C)c1 [Example 138, (R)-3-Ethyl-N-(3-methyl-1-(3-methyl-4-oxo-1-phenyl-1,3,8-triazaspiro[4.5]decan-8-yl)-1-oxobutan-2-yl)benzamide] | > 6.30 |
| CC(C)[C@@H](NC(=O)c1cc(C(F)(F)F)ccc1F)C(=O)N1CCC2(CC1)C(=O)N(C)C(=O)N2C1CC1 [Example 76, (R)—N-(1-(1-Cyclopropyl-3-methyl-2,4-dioxo-1,3,8-triazaspiro[4.5]decan-8-yl)-3-methyl-1-oxobutan-2-yl)-2-fluoro-5-(trifluoromethyl)benzamide] | 6.00 to 6.30 |
| CC(C)[C@@H](NC(=O)c1cc(Cl)ccc1F)C(=O)N1CCC2(CC1)C(=O)N(C)C(=O)N2c1ccccc1 [Example 43, (R)-5-Chloro-2-fluoro-N-(3-methyl-1-(3-methyl-2,4-dioxo-1-phenyl-1,3,8-triazaspiro[4.5]decan-8-yl)-1-oxobutan-2-yl)benzamide] | > 6.30 |
| CCc1ccc(F)c(C(=O)N[C@@H](C(=O)N2CCC3(CC2)C(=O)N(C)C(=O)N3c2ccc3cnc(C)n3c2)C(C)C)c1 [Example 18, (R)-5-Ethyl-2-fluoro-N-(3-methyl-1-(3-methyl-1-(3-methylimidazo[1,5-a]pyridin-6-yl)-2,4-dioxo-1,3,8-triazaspiro[4.5]decan-8-yl)-1-oxobutan-2-yl)benzamide] | > 6.30 |
| CC(C)[C@@H](NC(=O)c1nccs1)C(=O)N1CCC2(CC1)C(=O)N(C)C(=O)N2c1ccc2[nH]ncc2c1 [Example 234, (R)—N-(1-(1-(1H-Indazol-5-yl)-3-methyl-2,4-dioxo-1,3,8-triazaspiro[4.5]decan-8-yl)-3-methyl-1-oxobutan-2-yl)thiazole-2-carboxamide] | ≤ 6.00 |
| COc1ccc(N2C(C)N(C)C(=O)C23CCN(C(=O)[C@H](NC(=O)c2cc(C(F)(F)F)ccc2F)C(C)C)CC3)cc1 (stereo partly drawn) [Example 209, 2-Fluoro-N-((2R)-1-(1-(4-methoxyphenyl)-2,3-dimethyl-4-oxo-1,3,8-triazaspiro[4.5]decan-8-yl)-3-methyl-1-oxobutan-2-yl)-5-(trifluoromethyl)benzamide] | > 6.30 |
| CC(C)[C@@H](NC(=O)c1cc(C2CC2)ccc1F)C(=O)N1CCC2(CC1)C(=O)N(C)CN2c1ccc(C(=O)O)cc1 [Example 153, (R)-4-(8-(2-(5-Cyclopropyl-2-fluorobenzamido)-3-methylbutanoyl)-3-methyl-4-oxo-1,3,8-triazaspiro[4.5]decan-1-yl)benzoic Acid] | > 6.30 |
| CC(C)[C@@H](NC(=O)c1cc(C(F)(F)F)ccc1F)C(=O)N1CCC2(CC1)C(=O)N(C)CN2c1ccc(NS(C)(=O)=O)cc1 [Example 174, (R)-2-Fluoro-N-(3-methyl-1-(3-methyl-1-(4-(methylsulfonamido)phenyl)-4-oxo-1,3,8-triazaspiro[4.5]decan-8-yl)-1-oxobutan-2-yl)-5-(trifluoromethyl)benzamide] | > 6.30 |
| CC[C@@H](C)[C@@H](NC(=O)c1cccc(C)c1F)C(=O)N1CCC2(CC1)C(=O)N(C)C(=O)N2c1ccccc1 [Example 4, 2-Fluoro-3-methyl-N-((2R,3R)-3-methyl-1-(3-methyl-2,4-dioxo-1-phenyl-1,3,8-triazaspiro[4.5]decan-8-yl)-1-oxopentan-2-yl)benzamide] | > 6.30 |
| Cc1nc2ccc(N3C(=O)N(C)C(=O)C34CCN(C(=O)[C@H](NC(=O)c3cc(C(F)(F)F)ccc3F)C(C)C)CC4)cc2[nH]1 [Example 19, (R)-2-Fluoro-N-(3-methyl-1-(3-methyl-1-(2-methyl-1H-benzo[d]imidazol-6-yl)-2,4-dioxo-1,3,8-triazaspiro[4.5]decan-8-yl)-1-oxobutan-2-yl)-5-(trifluoromethyl)benzamide trifluoroacetic Acid Salt] | ≤ 6.00 |
| CCc1ccc(F)c(C(=O)N[C@@H](C(=O)N2CCC3(CC2)C(=O)N(C)C(=O)N3c2ccccc2)[C@H](C)OC)c1 [Example 37, 5-Ethyl-2-fluoro-N-((2R,3S)-3-methoxy-1-(3-methyl-2,4-dioxo-1-phenyl-1,3,8-triazaspiro[4.5]decan-8-yl)-1-oxobutan-2-yl)benzamide] | > 6.30 |
| CC[C@@H](C)[C@@H](NC(=O)c1cc(C)cc(F)c1)C(=O)N1CCC2(CC1)C(=O)N(C)C(=O)N2c1ccc(OC)cc1 [Example 41, 3-Fluoro-N-((2R,3R)-1-(1-(4-methoxyphenyl)-3-methyl-2,4-dioxo-1,3,8-triazaspiro[4.5]decan-8-yl)-3-methyl-1-oxopentan-2-yl)-5-methylbenzamide] | > 6.30 |
| CC(C)[C@@H](NC(=O)c1cc(C(F)(F)F)ccc1F)C(=O)N1CCC2(CC1)C(=O)N(C)C(=O)N2c1ccc(-c2nn[nH]n2)cc1 [Example 224, (R)—N-(1-(1-(4-(2H-Tetrazol-5-yl)phenyl)-3-methyl-2,4-dioxo-1,3,8-triazaspiro[4.5]decan-8-yl)-3-methyl-1-oxobutan-2-yl)-2-fluoro-5-(trifluoromethyl)benzamide] | > 6.30 |
| CN1CN(c2ccc(C(=O)O)cc2)C2(CCN(C(=O)[C@H](NC(=O)c3cc(C(F)(F)F)ccc3F)C(C)(C)C)CC2)C1=O [Example 159] | ≤ 6.00 |
| COc1ccc(N2C(=O)N(C)C(=O)C23CCN(C(=O)[C@H](NC(=O)c2cc(C(F)(F)F)ccc2F)C(C)C)CC3)cc1F [Example 6, (R)-2-Fluoro-N-(1-(1-(3-fluoro-4-methoxyphenyl)-3-methyl-2,4-dioxo-1,3,8-triazaspiro[4.5]decan-8-yl)-3-methyl-1-oxobutan-2-yl)-5-(trifluoromethyl)benzamide] | > 6.30 |
| COC(=O)Nc1ccc(N2C(=O)N(C)C(=O)C23CCN(C(=O)[C@H](NC(=O)c2cc(C(F)(F)F)ccc2F)C(C)C)CC3)cc1 [Example 127, (R)-Methyl-4-(8-(2-(2-fluoro-5-(trifluoromethyl)benzamido)-3-methylbutanoyl)-3-methyl-2,4-dioxo-1,3,8-triazaspiro[4.5]decan-1-yl)phenylcarbamate] | 6.00 to 6.30 |
